The target in assay [1] is T1, human recombinant ATX (Homo sapiens, UniProt Q13822).
T1 construct: purchased Cayman Chemical
The assay can be described thus: LC-QqQ assay of LPC cleavage by ATX (LPA 16:0 production). It is filed as biochemical. To be noted: for ATX inhibitory activity (LPA 16:0 production, LC-QqQ): 10 µM, LPC 16:0 300 µM, ATX 50 nM, 2 h, 37 °C; for Inhibition of the lysoPLD activity of ATX: stated in Conclusions, assay and concentration not given. The procedure:
Figure 5 Inhibition of lysophospholipase D activity of autotaxin (ATX) by cyclic phosphatidic acid (cPA) analogues. (a) Concentration–response curves for the inhibition of ATX activity as measured by the […] of the substrate lysophosphatidylcholine (LPC) using choline oxidase and peroxidase. LPC 16:0 (final concentration: 300 µM, above its critical micellar concentration [CMC]), human recombinant ATX (final concentration: 50 nM), and various concentrations of cPA analogues were used for incubation with 4-aminoantipyrine, TOOS (final concentration: 0.05% (w/v) each), choline oxidase and peroxidase (final concentration: 10 U/mL each) in the ATX assay buffer. The absorbance at a wavelength of 555 nm was measured at 0 and 2 h incubation at 37 °C. Inhibition was calculated as percentage (%) of reduction in absorbance compared with absorbance in the vehicle control (without cPA analogues) after subtraction of the value measured at time 0. Data are represented as mean ± standard deviation (n = 3–4 samples). (b) Inhibition of ATX activity measured by lysophosphatidic acid (LPA 16:0) production via liquid chromatography coupled to triple quadrupole mass spectrometry (LC-QqQ). The substrate LPC 16:0 (final concentration: 300 µM) was incubated with human recombinant ATX (final concentration: 50 nM) and cPA analogues (final concentration: 10 μM) for 2 h at 37 °C. The ATX product, LPA 16:0, was quantified by LC-QqQ. Inhibition was calculated as percentage (%) of reduction in LPA production compared with LPA production in the vehicle control (without cPA analogues). Data are represented as mean ± standard deviation (n = 5–6 samples). TEXT PRINTED IN THE PICTURE: (b) LPA: ATX Inhibition, %: ND
ATX (4 µL, final concentration: 50 nM) and cPA analogues (4 µL, final concentration: 10 µM) were added to a 200-µL siliconized microcentrifuge tube and mixed with 32 µL of LPC 16:0 (final concentration: 300 µM) in ATX assay buffer. After incubation at 37 °C for 2 h, 160 µL of acidic methanol was added to stop enzymatic reaction. Sample solutions were filtered, and the LPA 16:0 production was analysed using LC-QqQ as per methods described previously. Inhibition was calculated as a percentage (%) of reduction in LPA production compared to LPA production in the vehicle control (without cPA analogues).

For assay [2], the target named is T2, hLPA5 (Homo sapiens, UniProt Q9H1C0).
T2 construct: expressed in transfected cells; host or cells: 293A cells
T2 sequence (Q9H1C0 whole entry): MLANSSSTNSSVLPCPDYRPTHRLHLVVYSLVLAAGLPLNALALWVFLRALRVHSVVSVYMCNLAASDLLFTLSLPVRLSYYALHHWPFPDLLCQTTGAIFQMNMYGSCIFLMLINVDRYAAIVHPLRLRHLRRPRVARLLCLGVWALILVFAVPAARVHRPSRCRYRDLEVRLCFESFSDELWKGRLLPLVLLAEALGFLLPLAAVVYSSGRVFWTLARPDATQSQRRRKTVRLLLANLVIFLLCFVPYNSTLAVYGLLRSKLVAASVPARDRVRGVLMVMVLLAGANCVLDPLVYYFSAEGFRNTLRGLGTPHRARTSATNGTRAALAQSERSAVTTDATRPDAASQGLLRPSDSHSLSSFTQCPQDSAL
The assay can be described thus: TGFα-shedding assay, LPA5. The format is cell-based. To be noted: 293A cells, AP-TGFα release; for EC50: 1 h, with Ki16425 10 μM; for Emax: read-out: Emax ± SEM hLPA5 (converted). As to the method: (§1) 293A cells expressing LPA receptors were stimulated with the indicated concentration of LPA, 2carbaLPA, and cPA analogues. Receptor-specific alkaline phosphatase-tagged transforming growth factor-α release was calculated by subtracting the responses in the empty vector-transfected cells from those in the receptor-expressing cells. Data are represented as standard error of the mean of three independent replicates.
(§2) 293A cells (Life Technologies, Tokyo, Japan) were cultured in DMEM (Nissui Pharmaceutical, Tokyo, Japan) supplemented with 10% foetal calf serum (Gibco, Waltham, MA, USA) in an incubator at 37 °C and 5% CO2. This assay was conducted according to a modified version of a method described previously. […] The cells were co-transfected with vectors-expressing human LPA1–6, alkaline phosphatase-tagged TGFα (AP-TGFα). As negative controls, cells transfected with an empty vector instead of the receptor-expressing vector were used. After 24 h, the cells were resuspended in Hank’s balanced salt solution (HBSS), seeded in 96-well plates, and stimulated with cPA analogues administered at tenfold concentration of the final concentration. The cPA analogues were diluted with HBSS, 0.01% protease and fatty acid-free BSA (SERVA Electrophoresis GmbH, Heidelberg, Germany). Cells for LPA4, LPA5, and LPA6 analysis were treated with Ki16425 (final concentration: 10 μM), 5 min before treatment with the cPA analogues. After incubation for 1 h at 37 °C, 80 µL of the supernatant was transferred to fresh 96-well plates. An equal volume of 1 mM p-NPP solution [120 mM Tris–HCl (pH 9.5), 40 mM NaCl, and 10 mM MgCl2] was added to both the supernatant and the cells. Alkaline phosphatase activity was calculated by measuring absorbance at 405 nm using the Cytation 3 plate reader (BioTek, Winooski, VT, USA).

In assay [3] the target is T3, hLPA2 (Homo sapiens, UniProt Q9HBW0).
T3 construct: expressed in transfected cells; host or cells: 293A cells
T3 sequence (Q9HBW0 whole entry): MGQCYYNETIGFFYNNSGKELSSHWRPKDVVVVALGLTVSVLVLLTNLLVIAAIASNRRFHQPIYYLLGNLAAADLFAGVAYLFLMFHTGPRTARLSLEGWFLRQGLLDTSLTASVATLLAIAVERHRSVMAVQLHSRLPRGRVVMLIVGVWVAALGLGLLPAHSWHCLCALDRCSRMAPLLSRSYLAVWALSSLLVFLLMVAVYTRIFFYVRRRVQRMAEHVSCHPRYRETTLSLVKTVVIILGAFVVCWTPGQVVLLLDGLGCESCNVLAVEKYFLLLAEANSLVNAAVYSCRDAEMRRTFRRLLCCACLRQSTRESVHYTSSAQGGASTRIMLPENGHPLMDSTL
The assay can be described thus: TGFα-shedding assay, LPA2. The format is cell-based. To be noted: 293A cells, AP-TGFα release; for EC50: 1 h; for Emax: read-out: Emax ± SEM hLPA2 (converted). As to the method: as §1, §2

Assay [4] concerns the target T4, hLPA4 (Homo sapiens, UniProt Q99677).
T4 construct: expressed in transfected cells; host or cells: 293A cells
In words: TGFα-shedding assay, LPA4. It is filed as cell-based. To be noted: 293A cells, AP-TGFα release; for EC50: 1 h, with Ki16425 10 μM; for Emax: read-out: Emax ± SEM hLPA4 (converted). As to the method: as §1, §2

In assay [5] the target is T5, hLPA3 (Homo sapiens, UniProt Q9UBY5).
T5 construct: expressed in transfected cells; host or cells: 293A cells
T5 sequence (Q9UBY5 1-353): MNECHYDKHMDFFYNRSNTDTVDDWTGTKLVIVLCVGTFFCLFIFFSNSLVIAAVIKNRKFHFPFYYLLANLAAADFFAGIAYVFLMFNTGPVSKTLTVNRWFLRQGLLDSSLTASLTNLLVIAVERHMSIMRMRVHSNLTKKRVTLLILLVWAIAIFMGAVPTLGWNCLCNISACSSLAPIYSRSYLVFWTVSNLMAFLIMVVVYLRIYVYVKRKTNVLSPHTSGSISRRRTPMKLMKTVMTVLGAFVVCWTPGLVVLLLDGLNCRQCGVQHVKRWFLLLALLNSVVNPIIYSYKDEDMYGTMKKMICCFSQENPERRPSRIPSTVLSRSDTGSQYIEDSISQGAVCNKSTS
The assay can be described thus: TGFα-shedding assay, LPA3. The format is cell-based. To be noted: 293A cells, AP-TGFα release; for EC50: 1 h; for Emax: read-out: Emax ± SEM hLPA3 (converted). As to the method: as §1, §2

This note sets out measurements from PMC8405639, “2-Carba-lysophosphatidic acid is a novel β-lysophosphatidic acid analogue with high potential for lysophosphatidic acid receptor activation and autotaxin inhibition” (Scientific Reports, 2021).

Bounds are passed on as bounds.

T4 sequence (Q99677 whole entry): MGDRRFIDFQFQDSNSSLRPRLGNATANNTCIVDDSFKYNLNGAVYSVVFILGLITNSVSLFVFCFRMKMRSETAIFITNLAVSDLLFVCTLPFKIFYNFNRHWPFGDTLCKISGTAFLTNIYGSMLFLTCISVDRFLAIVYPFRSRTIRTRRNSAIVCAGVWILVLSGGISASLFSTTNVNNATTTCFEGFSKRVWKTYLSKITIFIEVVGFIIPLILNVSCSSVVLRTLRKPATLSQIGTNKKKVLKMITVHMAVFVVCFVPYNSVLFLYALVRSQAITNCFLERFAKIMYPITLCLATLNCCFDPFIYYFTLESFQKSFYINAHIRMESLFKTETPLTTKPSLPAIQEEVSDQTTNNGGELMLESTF

`CCCCCCCC/C=C\CCCCCCCC(=O)OC[C@@H]1COP(=O)(O)O1` [cPA 18:1, 1-Oleoyl-cPA]: the “ATX inhibitory activity (LPA 16:0 production, LC-QqQ)” value (from here on “ATX inhibitory activity”) in assay [1] is reported as “poor ATX inhibitor”. Further, in assay [1], the “Inhibition of the lysoPLD activity of ATX” value was 10%. The 50% effective concentration (EC50) in assay [2] was determined as 354 nM; in assay [3], 1070 nM; in assay [4], 32.8 nM; in assay [5], 439 nM. Also, the Emax in assay [2] was 35.6%; in assay [3], 35.9%; in assay [4], 17.2%; in assay [5], 16.8%.

As to `CCCCCCCC/C=C\CCCCCCCC(=O)OCC1COP(=O)(O)C1` (stereo not shown) [2ccPA 18:1, 2-carba-cyclic phosphatidic acid], the EC50 in assay [2] was 973 nM; in assay [3] (bound), > 3000 nM; in assay [4] it was 71.9 nM; in assay [5], 286 nM. The results for the Emax in assay [2], in assay [4] and in assay [5] were 31.7%, 19.6% and 30.8%, respectively.

Turning to `CCCCCCCC/C=C\CCCCCCCC(=O)OCC(CO)CP(=O)(O)O` (stereo not shown) [2carbaLPA 18:1, 2-carba-lysophosphatidic acid], the EC50 in assay [2] stood at 50.2 nM; in assay [3] it was 256 nM; in assay [4], 1 nM; in assay [5], 11.6 nM. Besides, the Emax in assay [2] is 38.3%; in assay [3], 35.8%; in assay [4] it was 24.9%; in assay [5], 42.7%.

Regarding `CCCCCCCC/C=C\CCCCCCCC(=O)OC[C@@H]1CCP(=O)(O)O1` [3ccPA 18:1, 3-carba-cyclic phosphatidic acid], in assay [1], the “ATX inhibitory activity” value is reported as “weak”. Also, the “Inhibition of the lysoPLD activity of ATX” value in assay [1] is 30%. The concentration giving a half-maximal response (EC50) in assay [2] is 2230 nM; in assay [3], 2600 nM; in assay [4], 92.3 nM. In addition, the Emax in assay [2] is 51.2%; in assay [3], 53.2%; in assay [4] it was 23.3%; in assay [5], 37.4%.

Consider `CCCCCCCC/C=C\CCCCCCCC(=O)OC[C@@H](O)CCP(=O)(O)O` [3carba LPA 18:1, 3-carba-lysophosphatidic acid], for which the “ATX inhibitory activity” value in assay [1] is on record as “significantly stronger than that of 3ccPA”. Also, the EC50 was 89.3 nM in assay [2], 28.3 nM in assay [3], 1.9 nM in assay [4] and 5.6 nM in assay [5]. Further, the Emax was 35.5% in assay [2], 30.7% in assay [3], 23.5% in assay [4] and 44.3% in assay [5].
